# What was measured:
# [1] = target: Serine/threonine-protein kinase WNK1 (Homo sapiens) (UniProt Q9H4A3); experiment: Inhibition of WNK1 (unknown origin) assessed as residual activity at 100 nM by KINOMEscan analysis relative to control
# [2] = target: T1, Non-receptor tyrosine-protein kinase TNK1 (Homo sapiens) (UniProt Q13470); experiment: Inhibition of TNK1 (unknown origin) assessed as residual activity at 100 nM by KINOMEscan analysis relative to control
# T1 sequence (whole entry): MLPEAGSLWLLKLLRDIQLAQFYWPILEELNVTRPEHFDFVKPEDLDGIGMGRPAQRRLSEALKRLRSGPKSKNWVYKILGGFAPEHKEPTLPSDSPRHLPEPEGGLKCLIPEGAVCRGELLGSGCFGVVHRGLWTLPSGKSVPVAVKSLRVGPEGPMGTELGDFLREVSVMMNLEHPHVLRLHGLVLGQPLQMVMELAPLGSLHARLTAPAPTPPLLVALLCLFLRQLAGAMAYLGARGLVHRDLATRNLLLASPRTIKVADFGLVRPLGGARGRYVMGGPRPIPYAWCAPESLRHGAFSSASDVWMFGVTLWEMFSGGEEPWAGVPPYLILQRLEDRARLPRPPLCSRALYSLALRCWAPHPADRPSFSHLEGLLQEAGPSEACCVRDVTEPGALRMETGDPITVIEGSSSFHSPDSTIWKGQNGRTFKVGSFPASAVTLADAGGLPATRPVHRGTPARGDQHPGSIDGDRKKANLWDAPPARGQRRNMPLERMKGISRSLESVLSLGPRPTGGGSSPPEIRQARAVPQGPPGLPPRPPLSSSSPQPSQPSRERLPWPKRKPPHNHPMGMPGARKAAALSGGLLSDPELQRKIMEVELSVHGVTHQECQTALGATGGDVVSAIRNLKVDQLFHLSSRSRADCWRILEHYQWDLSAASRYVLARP
# [3] = target: Tyrosine-protein kinase Lck (Homo sapiens) (UniProt P06239); experiment: Inhibition of LCK (unknown origin) assessed as residual activity at 100 nM by KINOMEscan analysis relative to control
# Tyrosine-protein kinase Lck (Homo sapiens), sequence (P06239 2-509 limits assumed): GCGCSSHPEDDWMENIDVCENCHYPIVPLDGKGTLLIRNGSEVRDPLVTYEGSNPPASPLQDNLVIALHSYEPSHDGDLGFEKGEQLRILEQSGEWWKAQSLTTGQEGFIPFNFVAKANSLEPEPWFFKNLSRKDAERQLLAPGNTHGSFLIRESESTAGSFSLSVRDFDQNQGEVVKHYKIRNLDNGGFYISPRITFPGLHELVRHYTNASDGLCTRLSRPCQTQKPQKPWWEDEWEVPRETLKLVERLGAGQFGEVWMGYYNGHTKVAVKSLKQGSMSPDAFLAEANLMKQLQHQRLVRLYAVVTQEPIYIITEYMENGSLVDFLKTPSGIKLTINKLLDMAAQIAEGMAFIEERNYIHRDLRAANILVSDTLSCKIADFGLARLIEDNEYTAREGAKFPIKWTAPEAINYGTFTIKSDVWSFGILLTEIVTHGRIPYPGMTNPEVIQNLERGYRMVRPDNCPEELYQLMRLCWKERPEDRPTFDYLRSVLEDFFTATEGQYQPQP
# [4] = target: Serine/threonine-protein kinase 26 (Homo sapiens) (UniProt Q9P289); experiment: Inhibition of MST4 (unknown origin) assessed as residual activity at 100 nM by KINOMEscan analysis relative to control
# [5] = target: T2, Interleukin-1 receptor-associated kinase 3 (Homo sapiens) (UniProt Q9Y616); experiment: Inhibition of IRAK3 (unknown origin) assessed as residual activity at 100 nM by KINOMEscan analysis relative to control
# T2 sequence (whole entry): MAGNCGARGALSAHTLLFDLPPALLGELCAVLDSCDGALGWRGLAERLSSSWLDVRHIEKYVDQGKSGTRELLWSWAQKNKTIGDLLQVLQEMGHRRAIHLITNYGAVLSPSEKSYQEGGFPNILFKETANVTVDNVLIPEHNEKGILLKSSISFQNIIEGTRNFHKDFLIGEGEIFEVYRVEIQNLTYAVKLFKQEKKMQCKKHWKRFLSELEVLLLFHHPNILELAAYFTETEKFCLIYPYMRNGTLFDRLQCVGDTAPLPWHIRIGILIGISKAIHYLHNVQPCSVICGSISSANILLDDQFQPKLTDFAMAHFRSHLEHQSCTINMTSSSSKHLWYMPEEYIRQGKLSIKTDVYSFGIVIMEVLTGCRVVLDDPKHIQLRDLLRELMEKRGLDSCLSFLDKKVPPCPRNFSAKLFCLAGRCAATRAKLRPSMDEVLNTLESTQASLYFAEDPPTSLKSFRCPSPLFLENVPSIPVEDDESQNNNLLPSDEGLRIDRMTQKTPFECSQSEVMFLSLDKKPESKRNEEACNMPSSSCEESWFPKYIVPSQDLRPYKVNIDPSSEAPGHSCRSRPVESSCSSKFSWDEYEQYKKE
# [6] = target: Tyrosine-protein kinase JAK1 (Homo sapiens) (UniProt P23458); experiment: Inhibition of JAK1 JH2 pseudokinase domain (unknown origin) assessed as residual activity at 100 nM by KINOMEscan analysis relative to control
# [7] = target: Proto-oncogene tyrosine-protein kinase ROS (Homo sapiens) (UniProt P08922); experiment: Inhibition of ROS1 (unknown origin) assessed as residual activity at 100 nM by KINOMEscan analysis relative to control
# Proto-oncogene tyrosine-protein kinase ROS (Homo sapiens), sequence (P08922 whole entry): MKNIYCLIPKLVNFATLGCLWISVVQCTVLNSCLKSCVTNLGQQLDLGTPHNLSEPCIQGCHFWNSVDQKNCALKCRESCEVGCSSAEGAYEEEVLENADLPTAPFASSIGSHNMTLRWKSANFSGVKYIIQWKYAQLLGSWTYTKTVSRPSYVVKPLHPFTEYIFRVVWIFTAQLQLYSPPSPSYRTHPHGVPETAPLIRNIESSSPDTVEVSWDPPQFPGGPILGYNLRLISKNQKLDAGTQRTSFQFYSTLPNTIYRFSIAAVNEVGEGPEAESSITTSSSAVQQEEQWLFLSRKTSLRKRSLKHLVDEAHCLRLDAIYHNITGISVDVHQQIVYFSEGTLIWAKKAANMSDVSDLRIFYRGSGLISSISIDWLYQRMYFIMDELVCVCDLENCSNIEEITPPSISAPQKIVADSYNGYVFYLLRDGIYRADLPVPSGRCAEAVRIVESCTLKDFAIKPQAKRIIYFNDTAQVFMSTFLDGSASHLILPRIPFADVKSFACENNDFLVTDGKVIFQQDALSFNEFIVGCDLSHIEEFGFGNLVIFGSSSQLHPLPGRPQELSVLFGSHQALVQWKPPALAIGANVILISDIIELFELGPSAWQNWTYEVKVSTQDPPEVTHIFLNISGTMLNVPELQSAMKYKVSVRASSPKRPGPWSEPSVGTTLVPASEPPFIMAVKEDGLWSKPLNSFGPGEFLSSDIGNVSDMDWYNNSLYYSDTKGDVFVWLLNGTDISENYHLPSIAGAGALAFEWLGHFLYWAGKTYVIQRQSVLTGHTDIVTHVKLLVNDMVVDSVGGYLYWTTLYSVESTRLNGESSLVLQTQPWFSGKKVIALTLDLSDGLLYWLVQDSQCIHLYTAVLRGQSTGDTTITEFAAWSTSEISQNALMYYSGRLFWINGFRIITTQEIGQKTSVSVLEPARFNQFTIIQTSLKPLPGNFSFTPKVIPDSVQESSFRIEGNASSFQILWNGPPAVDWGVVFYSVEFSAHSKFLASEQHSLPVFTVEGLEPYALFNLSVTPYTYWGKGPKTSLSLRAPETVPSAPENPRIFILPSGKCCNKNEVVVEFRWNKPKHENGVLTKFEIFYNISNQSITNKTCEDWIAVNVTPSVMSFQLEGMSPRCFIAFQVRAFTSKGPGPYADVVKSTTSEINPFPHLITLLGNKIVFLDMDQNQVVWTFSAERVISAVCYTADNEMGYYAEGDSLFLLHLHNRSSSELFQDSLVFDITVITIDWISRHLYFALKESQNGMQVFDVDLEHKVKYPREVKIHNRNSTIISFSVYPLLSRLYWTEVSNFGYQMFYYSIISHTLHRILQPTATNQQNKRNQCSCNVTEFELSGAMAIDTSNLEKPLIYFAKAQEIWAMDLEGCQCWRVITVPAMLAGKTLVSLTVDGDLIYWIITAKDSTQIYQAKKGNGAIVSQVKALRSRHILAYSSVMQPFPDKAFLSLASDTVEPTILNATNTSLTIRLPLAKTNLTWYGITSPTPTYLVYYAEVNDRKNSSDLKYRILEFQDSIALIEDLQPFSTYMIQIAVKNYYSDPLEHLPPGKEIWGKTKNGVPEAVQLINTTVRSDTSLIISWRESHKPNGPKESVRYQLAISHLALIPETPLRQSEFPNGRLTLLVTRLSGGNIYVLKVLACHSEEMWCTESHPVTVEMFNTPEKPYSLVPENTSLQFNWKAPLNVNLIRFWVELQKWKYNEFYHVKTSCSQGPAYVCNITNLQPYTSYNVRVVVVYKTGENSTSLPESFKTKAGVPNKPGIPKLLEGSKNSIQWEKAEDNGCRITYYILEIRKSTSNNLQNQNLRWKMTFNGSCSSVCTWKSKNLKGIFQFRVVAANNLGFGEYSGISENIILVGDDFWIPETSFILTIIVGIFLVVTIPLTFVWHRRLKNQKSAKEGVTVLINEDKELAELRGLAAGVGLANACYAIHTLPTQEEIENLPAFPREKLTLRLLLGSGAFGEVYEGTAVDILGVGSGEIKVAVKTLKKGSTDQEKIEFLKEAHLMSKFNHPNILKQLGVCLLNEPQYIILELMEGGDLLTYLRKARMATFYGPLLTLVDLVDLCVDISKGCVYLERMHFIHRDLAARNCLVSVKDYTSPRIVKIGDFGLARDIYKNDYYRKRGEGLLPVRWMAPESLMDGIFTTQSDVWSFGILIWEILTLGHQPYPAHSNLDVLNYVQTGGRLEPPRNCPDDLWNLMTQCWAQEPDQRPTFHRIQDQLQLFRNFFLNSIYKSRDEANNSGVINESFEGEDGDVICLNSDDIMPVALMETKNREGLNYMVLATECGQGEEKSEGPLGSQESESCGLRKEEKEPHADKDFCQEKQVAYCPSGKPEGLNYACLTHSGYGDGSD
# [8] = target: Myosin light chain kinase 3 (Homo sapiens) (UniProt Q32MK0); experiment: Inhibition of MLCK (unknown origin) assessed as residual activity at 100 nM by KINOMEscan analysis relative to control
# [9] = target: Cyclin-dependent kinase 2 homolog (Plasmodium falciparum (isolate K1 / Thailand)) (UniProt Q07785); experiment: Inhibition of Plasmodium falciparum PK5 assessed as residual activity at 100 nM by KINOMEscan analysis relative to control
# Cyclin-dependent kinase 2 homolog (Plasmodium falciparum (isolate K1 / Thailand)), sequence (Q07785 whole entry): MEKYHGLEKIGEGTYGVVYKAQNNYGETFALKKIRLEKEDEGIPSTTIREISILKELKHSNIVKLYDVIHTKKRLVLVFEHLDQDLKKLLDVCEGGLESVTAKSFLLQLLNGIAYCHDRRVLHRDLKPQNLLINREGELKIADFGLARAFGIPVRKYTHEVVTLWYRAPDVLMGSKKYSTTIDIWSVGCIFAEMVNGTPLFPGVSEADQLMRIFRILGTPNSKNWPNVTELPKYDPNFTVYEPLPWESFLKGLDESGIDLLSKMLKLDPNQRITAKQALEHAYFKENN
# [10] = target: Homeodomain-interacting protein kinase 2 (Homo sapiens) (UniProt Q9H2X6); experiment: Inhibition of HIPK2 (unknown origin) assessed as residual activity at 100 nM by KINOMEscan analysis relative to control
# [11] = tested on: Receptor-type tyrosine-protein kinase FLT3 (Homo sapiens), P36888 [D835H]; experiment: Inhibition of FLT3 D835H mutant (unknown origin) assessed as residual activity at 100 nM by KINOMEscan analysis relative to control
# [12] = target: NT-3 growth factor receptor (Homo sapiens) (UniProt Q16288); experiment: Inhibition of TRKC (unknown origin) assessed as residual activity at 100 nM by KINOMEscan analysis relative to control
# [13] = target: Cyclin-dependent kinase 11B (Homo sapiens) (UniProt P21127); experiment: Inhibition of CDC2L1 (unknown origin) assessed as residual activity at 100 nM by KINOMEscan analysis relative to control
# Cyclin-dependent kinase 11B (Homo sapiens), sequence (P21127 whole entry): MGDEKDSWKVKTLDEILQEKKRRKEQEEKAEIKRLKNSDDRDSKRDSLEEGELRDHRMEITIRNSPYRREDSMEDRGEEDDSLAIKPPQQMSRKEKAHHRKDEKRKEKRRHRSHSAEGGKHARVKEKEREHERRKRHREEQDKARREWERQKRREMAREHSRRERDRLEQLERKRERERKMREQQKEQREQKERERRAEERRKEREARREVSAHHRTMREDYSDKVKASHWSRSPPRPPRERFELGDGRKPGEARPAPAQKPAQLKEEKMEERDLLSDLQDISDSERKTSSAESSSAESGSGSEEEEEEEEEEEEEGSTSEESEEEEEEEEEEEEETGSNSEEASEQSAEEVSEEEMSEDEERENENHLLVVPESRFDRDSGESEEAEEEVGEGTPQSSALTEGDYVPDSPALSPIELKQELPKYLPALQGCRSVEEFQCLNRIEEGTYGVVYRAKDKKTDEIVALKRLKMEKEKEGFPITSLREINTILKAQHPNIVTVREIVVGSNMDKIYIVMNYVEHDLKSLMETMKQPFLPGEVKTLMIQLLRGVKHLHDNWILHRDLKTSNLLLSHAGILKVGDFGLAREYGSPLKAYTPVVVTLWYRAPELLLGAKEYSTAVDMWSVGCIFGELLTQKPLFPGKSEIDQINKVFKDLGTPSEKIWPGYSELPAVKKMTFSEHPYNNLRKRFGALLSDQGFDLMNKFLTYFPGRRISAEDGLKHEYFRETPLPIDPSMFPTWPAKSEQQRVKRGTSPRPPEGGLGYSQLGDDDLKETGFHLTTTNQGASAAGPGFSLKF
# [14] = tested on: Mast/stem cell growth factor receptor Kit (Homo sapiens), P10721 [V559D,T670I]; experiment: Inhibition of KIT V559D/T670I mutant (unknown origin) assessed as residual activity at 100 nM by KINOMEscan analysis relative to control
# Mast/stem cell growth factor receptor Kit (Homo sapiens), P10721 [V559D,T670I], sequence (P10721 whole entry V559D/T670I): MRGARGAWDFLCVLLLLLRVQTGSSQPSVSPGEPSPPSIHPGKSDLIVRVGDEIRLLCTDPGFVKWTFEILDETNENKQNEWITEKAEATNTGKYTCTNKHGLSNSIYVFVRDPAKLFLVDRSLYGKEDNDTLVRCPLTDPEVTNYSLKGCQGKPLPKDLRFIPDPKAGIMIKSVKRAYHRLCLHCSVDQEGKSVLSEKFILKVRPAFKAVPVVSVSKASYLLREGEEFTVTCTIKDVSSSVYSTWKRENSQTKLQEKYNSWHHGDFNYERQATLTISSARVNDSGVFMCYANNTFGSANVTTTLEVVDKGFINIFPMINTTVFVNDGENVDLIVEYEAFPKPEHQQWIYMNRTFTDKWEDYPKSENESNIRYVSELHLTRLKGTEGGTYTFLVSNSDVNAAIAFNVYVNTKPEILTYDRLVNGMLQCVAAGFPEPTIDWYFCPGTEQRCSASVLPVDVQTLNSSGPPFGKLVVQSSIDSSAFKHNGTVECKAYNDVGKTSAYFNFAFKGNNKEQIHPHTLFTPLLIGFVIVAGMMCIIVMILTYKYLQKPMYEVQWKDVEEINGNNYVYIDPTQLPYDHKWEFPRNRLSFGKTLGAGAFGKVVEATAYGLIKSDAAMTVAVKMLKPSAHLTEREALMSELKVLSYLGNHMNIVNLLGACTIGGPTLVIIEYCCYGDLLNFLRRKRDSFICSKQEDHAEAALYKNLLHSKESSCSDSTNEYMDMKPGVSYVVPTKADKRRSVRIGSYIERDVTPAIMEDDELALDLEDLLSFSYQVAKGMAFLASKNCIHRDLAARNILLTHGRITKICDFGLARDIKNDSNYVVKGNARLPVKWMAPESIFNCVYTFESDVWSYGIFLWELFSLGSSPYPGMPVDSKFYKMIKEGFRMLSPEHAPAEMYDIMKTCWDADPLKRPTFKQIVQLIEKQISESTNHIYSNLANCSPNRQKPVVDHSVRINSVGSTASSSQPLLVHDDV
smiles,measurement,setting,value
COc1cc2ncnc(N[C@H](C)c3cccc4ccccc34)c2cc1OC,Activity,[1],83%
same,Activity,[2],86%
same,Activity,[3],100%
same,Activity,[4],88%
same,Activity,[5],100%
same,Activity,[6],100%
same,Activity,[7],100%
same,Activity,[8],97%
same,Activity,[9],100%
same,Activity,[10],93%
same,Activity,[11],92%
same,Activity,[12],89%
same,Activity,[13],82%
same,Activity,[14],92%
